# Laboratory results: US20260226493A1, “HERBICIDE RESISTANT PLANTS” (SYNGENTA CROP PROTECTION AG, priority 2023, published 2026)
# Assays:
# Assay in all cases: BIO3-BIO1 mutant enzyme activity in the presence of herbicide, percentage inhibition (fluorometric DAPA assay)
# Format in all cases: biochemical
# Conditions in all cases: read-out: percentage inhibition
# [1] = target: T1, Arabidopsis thaliana BIO3-BIO1 (BioDA) mutants (Arabidopsis thaliana, UniProt B0F481, P421L)
# T1 construct: with the predicted N-terminal mitochondrial transit peptide removed; 6xHis-tag (N); thrombin cleavage site (N); made in house; host or cells: E. coli BL21 (DE3) bioA
# How it was run: (§1)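 His-tagged Arabidopsis BIO3-BIO1 mutants, expressed in E. coli and purified by IMAC and SEC, were preincubated at 50 nM with herbicide for 10 min at 20 °C in EPPS pH 8.6 with pyridoxal phosphate. Reaction with 100 μM spermidine and 20 μM KAPA ran 75 min at 20 °C; DAPA was derivatised with o-phthalaldehyde and read at ex 410/em 470 nm. […].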
# [2] = target: T2, Arabidopsis thaliana BIO3-BIO1 (BioDA) mutants (Arabidopsis thaliana, UniProt B0F481, Y511I)
# T2 construct: with the predicted N-terminal mitochondrial transit peptide removed; 6xHis-tag (N); thrombin cleavage site (N); made in house; host or cells: E. coli BL21 (DE3) bioA
# How it was run: as §1
# [3] = target: T3, Arabidopsis thaliana BIO3-BIO1 (BioDA) mutants (Arabidopsis thaliana, UniProt B0F481, W392S)
# T3 construct: with the predicted N-terminal mitochondrial transit peptide removed; 6xHis-tag (N); thrombin cleavage site (N); made in house; host or cells: E. coli BL21 (DE3) bioA
# How it was run: as §1
# [4] = target: T4, Arabidopsis thaliana BIO3-BIO1 (BioDA) mutants (Arabidopsis thaliana, UniProt B0F481, P529A)
# T4 construct: with the predicted N-terminal mitochondrial transit peptide removed; 6xHis-tag (N); thrombin cleavage site (N); made in house; host or cells: E. coli BL21 (DE3) bioA
# How it was run: as §1
# [5] = target: T5, Arabidopsis thaliana BIO3-BIO1 (BioDA) mutants (Arabidopsis thaliana, UniProt B0F481, S509W)
# T5 construct: with the predicted N-terminal mitochondrial transit peptide removed; 6xHis-tag (N); thrombin cleavage site (N); made in house; host or cells: E. coli BL21 (DE3) bioA
# How it was run: as §1
# [6] = target: T6, Arabidopsis thaliana BIO3-BIO1 (BioDA) mutants (Arabidopsis thaliana, UniProt B0F481, S509T)
# T6 construct: with the predicted N-terminal mitochondrial transit peptide removed; 6xHis-tag (N); thrombin cleavage site (N); made in house; host or cells: E. coli BL21 (DE3) bioA
# How it was run: as §1
# [7] = target: T7, Arabidopsis thaliana BIO3-BIO1 (BioDA) mutants (Arabidopsis thaliana, UniProt B0F481, C388M)
# T7 construct: with the predicted N-terminal mitochondrial transit peptide removed; 6xHis-tag (N); thrombin cleavage site (N); made in house; host or cells: E. coli BL21 (DE3) bioA
# How it was run: as §1
# [8] = target: T8, Arabidopsis thaliana BIO3-BIO1 (BioDA) mutants (Arabidopsis thaliana, UniProt B0F481, L786S)
# T8 construct: with the predicted N-terminal mitochondrial transit peptide removed; 6xHis-tag (N); thrombin cleavage site (N); made in house; host or cells: E. coli BL21 (DE3) bioA
# How it was run: as §1
# [9] = target: T9, Arabidopsis thaliana BIO3-BIO1 (BioDA) mutants (Arabidopsis thaliana, UniProt B0F481, F348E)
# T9 construct: with the predicted N-terminal mitochondrial transit peptide removed; 6xHis-tag (N); thrombin cleavage site (N); made in house; host or cells: E. coli BL21 (DE3) bioA
# How it was run: as §1
# [10] = target: T10, Arabidopsis thaliana BIO3-BIO1 (BioDA) mutants (Arabidopsis thaliana, UniProt B0F481, M419I)
# T10 construct: with the predicted N-terminal mitochondrial transit peptide removed; 6xHis-tag (N); thrombin cleavage site (N); made in house; host or cells: E. coli BL21 (DE3) bioA
# How it was run: as §1
# [11] = target: T11, Arabidopsis thaliana BIO3-BIO1 (BioDA) mutants (Arabidopsis thaliana, UniProt B0F481, P421A)
# T11 construct: with the predicted N-terminal mitochondrial transit peptide removed; 6xHis-tag (N); thrombin cleavage site (N); made in house; host or cells: E. coli BL21 (DE3) bioA
# How it was run: as §1
# [12] = target: T12, Arabidopsis thaliana BIO3-BIO1 (BioDA) mutants (Arabidopsis thaliana, UniProt B0F481, F348T)
# T12 construct: with the predicted N-terminal mitochondrial transit peptide removed; 6xHis-tag (N); thrombin cleavage site (N); made in house; host or cells: E. coli BL21 (DE3) bioA
# How it was run: as §1
# T12 sequence (B0F481 23-833 F348T): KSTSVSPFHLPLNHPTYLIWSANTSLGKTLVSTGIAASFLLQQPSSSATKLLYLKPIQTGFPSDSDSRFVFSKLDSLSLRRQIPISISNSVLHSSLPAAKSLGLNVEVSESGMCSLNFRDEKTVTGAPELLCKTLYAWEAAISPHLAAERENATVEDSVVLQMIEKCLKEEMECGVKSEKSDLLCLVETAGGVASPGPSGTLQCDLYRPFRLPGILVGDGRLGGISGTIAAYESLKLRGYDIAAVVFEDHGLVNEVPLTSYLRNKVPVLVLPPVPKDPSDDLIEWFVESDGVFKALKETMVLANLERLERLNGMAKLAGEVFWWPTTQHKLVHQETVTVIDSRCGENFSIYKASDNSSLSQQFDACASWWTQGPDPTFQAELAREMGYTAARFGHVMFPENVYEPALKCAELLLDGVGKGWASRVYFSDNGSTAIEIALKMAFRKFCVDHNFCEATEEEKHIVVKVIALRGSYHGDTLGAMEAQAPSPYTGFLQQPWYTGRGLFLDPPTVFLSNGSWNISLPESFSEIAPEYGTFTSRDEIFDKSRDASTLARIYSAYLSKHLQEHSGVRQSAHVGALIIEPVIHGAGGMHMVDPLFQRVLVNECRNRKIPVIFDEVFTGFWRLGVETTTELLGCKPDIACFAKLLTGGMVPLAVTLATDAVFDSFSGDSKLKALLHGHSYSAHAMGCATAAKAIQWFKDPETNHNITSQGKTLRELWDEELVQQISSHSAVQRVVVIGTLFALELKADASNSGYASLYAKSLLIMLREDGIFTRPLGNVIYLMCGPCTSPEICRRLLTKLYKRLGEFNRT
# T8 sequence (B0F481 23-833 L786S): as the sequence (B0F481 23-833 F348T) above, with T326F, L764S counted along it
# T11 sequence (B0F481 23-833 P421A): as the sequence (B0F481 23-833 F348T) above, with T326F, P399A counted along it
# T4 sequence (B0F481 23-833 P529A): as the sequence (B0F481 23-833 F348T) above, with T326F, P507A counted along it
# T1 sequence (B0F481 23-833 P421L): as the sequence (B0F481 23-833 F348T) above, with T326F, P399L counted along it
# T10 sequence (B0F481 23-833 M419I): as the sequence (B0F481 23-833 F348T) above, with T326F, M397I counted along it
# T5 sequence (B0F481 23-833 S509W): as the sequence (B0F481 23-833 F348T) above, with T326F, S487W counted along it
# T3 sequence (B0F481 23-833 W392S): as the sequence (B0F481 23-833 F348T) above, with T326F, W370S counted along it
# T7 sequence (B0F481 23-833 C388M): as the sequence (B0F481 23-833 F348T) above, with T326F, C366M counted along it
# T9 sequence (B0F481 23-833 F348E): as the sequence (B0F481 23-833 F348T) above, with T326E counted along it
# T6 sequence (B0F481 23-833 S509T): as the sequence (B0F481 23-833 F348T) above, with T326F, S487T counted along it
# T2 sequence (B0F481 23-833 Y511I): as the sequence (B0F481 23-833 F348T) above, with T326F, Y489I counted along it
structure (smiles),measurement,setting,value
"CCn1c(-c2ccc(Cl)c(Cl)c2)c(C(=O)O)c(=O)c2cc(F)ccc21 [Compound M, 2-(3,4-dichlorophenyl)-1-ethyl-6-fluoro-4-oxo-quinoline-3-carboxylic acid]",inhibition at 0.2 µM,[1],0%
same,inhibition at 1 µM,[1],6%
same,inhibition at 5 µM,[1],31%
same,inhibition at 0.2 µM,[2],21%
same,inhibition at 1 µM,[2],81%
same,inhibition at 5 µM,[2],96%
same,inhibition at 0.2 µM,[3],0%
same,inhibition at 1 µM,[3],0%
same,inhibition at 5 µM,[3],0%
same,inhibition at 0.2 µM,[4],0%
same,inhibition at 1 µM,[4],25%
same,inhibition at 5 µM,[4],68%
same,inhibition at 0.2 µM,[5],0%
same,inhibition at 1 µM,[5],60%
same,inhibition at 5 µM,[5],95%
same,inhibition at 0.2 µM,[6],9%
same,inhibition at 1 µM,[6],69%
same,inhibition at 5 µM,[6],95%
same,inhibition at 0.2 µM,[7],16%
same,inhibition at 1 µM,[7],24%
same,inhibition at 5 µM,[7],41%
same,inhibition at 0.2 µM,[8],33%
same,inhibition at 1 µM,[8],81%
same,inhibition at 5 µM,[8],97%
same,inhibition at 0.2 µM,[9],27%
same,inhibition at 1 µM,[9],25%
same,inhibition at 5 µM,[9],66%
same,inhibition at 0.2 µM,[10],2%
same,inhibition at 1 µM,[10],21%
same,inhibition at 5 µM,[10],20%
same,inhibition at 0.2 µM,[11],15%
same,inhibition at 1 µM,[11],11%
same,inhibition at 5 µM,[11],17%
same,inhibition at 0.2 µM,[12],15%
same,inhibition at 1 µM,[12],2%
same,inhibition at 5 µM,[12],7%
"CCn1c(C)c(-c2ccc(F)cc2F)c(=O)c(C(=O)O)c1-c1ccc(Cl)c(Cl)c1 [Compound C, 2-(3,4-dichlorophenyl)-5-(2,4-difluorophenyl)-1-ethyl-6-methyl-4-oxo-pyridine-3-carboxylic acid]",inhibition at 0.2 µM,[1],4%
same,inhibition at 1 µM,[1],35%
same,inhibition at 5 µM,[1],67%
same,inhibition at 0.2 µM,[2],36%
same,inhibition at 1 µM,[2],93%
same,inhibition at 5 µM,[2],100%
same,inhibition at 0.2 µM,[3],0%
same,inhibition at 1 µM,[3],0%
same,inhibition at 5 µM,[3],20%
same,inhibition at 0.2 µM,[4],4%
same,inhibition at 1 µM,[4],25%
same,inhibition at 5 µM,[4],71%
same,inhibition at 0.2 µM,[5],14%
same,inhibition at 1 µM,[5],92%
same,inhibition at 5 µM,[5],103%
same,inhibition at 0.2 µM,[6],5%
same,inhibition at 1 µM,[6],50%
same,inhibition at 5 µM,[6],89%
same,inhibition at 0.2 µM,[7],20%
same,inhibition at 1 µM,[7],17%
same,inhibition at 5 µM,[7],69%
same,inhibition at 0.2 µM,[8],26%
same,inhibition at 1 µM,[8],84%
same,inhibition at 5 µM,[8],98%
same,inhibition at 0.2 µM,[9],19%
same,inhibition at 1 µM,[9],57%
same,inhibition at 5 µM,[9],86%
same,inhibition at 0.2 µM,[10],1%
same,inhibition at 1 µM,[10],7%
same,inhibition at 5 µM,[10],53%
same,inhibition at 0.2 µM,[11],16%
same,inhibition at 1 µM,[11],16%
same,inhibition at 5 µM,[11],35%
same,inhibition at 0.2 µM,[12],0%
same,inhibition at 1 µM,[12],4%
same,inhibition at 5 µM,[12],0%
"CCOC(=O)c1nn(-c2ccc3c(c2)OC(F)(F)C(F)(F)O3)c2cccc(C(C)=O)c2c1=O [Compound A, ethyl 5-acetyl-4-oxo-1-(2,2,3,3-tetrafluoro-1,4-benzodioxin-6-yl)cinnoline-3-carboxylate]",inhibition at 1 µM,[1],61%
same,inhibition at 1 µM,[2],17%
same,inhibition at 1 µM,[3],23%
same,inhibition at 1 µM,[4],0%
same,inhibition at 1 µM,[5],0%
same,inhibition at 1 µM,[6],77%
same,inhibition at 1 µM,[7],31%
same,inhibition at 1 µM,[8],80%
same,inhibition at 1 µM,[9],0%
same,inhibition at 1 µM,[10],7%
same,inhibition at 1 µM,[11],0%
same,inhibition at 1 µM,[12],0%
"CCn1c(Cn2ccc(C(F)(F)F)n2)cc(=O)c(C(=O)O)c1-c1ccc(Cl)c(Cl)c1 [Compound L, 2-(3,4-dichlorophenyl)-1-ethyl-4-oxo-6-[[3-(trifluoromethyl)pyrazol-1-yl]methyl]pyridine-3-carboxylic acid]",inhibition at 0.01 µM,[1],0%
same,inhibition at 0.075 µM,[1],10%
same,inhibition at 0.5 µM,[1],45%
same,inhibition at 0.01 µM,[4],0%
same,inhibition at 0.075 µM,[4],0%
same,inhibition at 0.5 µM,[4],60%
same,inhibition at 0.01 µM,[7],10%
same,inhibition at 0.075 µM,[7],18%
same,inhibition at 0.5 µM,[7],34%
same,inhibition at 0.01 µM,[8],11%
same,inhibition at 0.075 µM,[8],31%
same,inhibition at 0.5 µM,[8],93%
same,inhibition at 0.01 µM,[9],0%
same,inhibition at 0.075 µM,[9],0%
same,inhibition at 0.5 µM,[9],32%
same,inhibition at 0.01 µM,[10],6%
same,inhibition at 0.075 µM,[10],1%
same,inhibition at 0.5 µM,[10],30%
same,inhibition at 0.01 µM,[11],15%
same,inhibition at 0.075 µM,[11],16%
same,inhibition at 0.5 µM,[11],21%
same,inhibition at 0.01 µM,[12],1%
same,inhibition at 0.075 µM,[12],3%
same,inhibition at 0.5 µM,[12],7%
